Source: ChEMBL document CHEMBL4266006, “Synthesis and Evaluation of Aryl Quinolines as HIV-1 Integrase Multimerization Inhibitors” (ACS Med Chem Lett, 2018)

Target: Human immunodeficiency virus type 1 integrase (Human immunodeficiency virus 1, UniProt Q7ZJM1)
Assay: Inhibition of N-terminal His/flag-tagged HIV1 integrase expressed in Escherichia coli BL21 (DE3) incubated for 2.5 hrs by HTRF assay; call rule not given here

Chain of Human immunodeficiency virus type 1 integrase (Q7ZJM1 whole entry): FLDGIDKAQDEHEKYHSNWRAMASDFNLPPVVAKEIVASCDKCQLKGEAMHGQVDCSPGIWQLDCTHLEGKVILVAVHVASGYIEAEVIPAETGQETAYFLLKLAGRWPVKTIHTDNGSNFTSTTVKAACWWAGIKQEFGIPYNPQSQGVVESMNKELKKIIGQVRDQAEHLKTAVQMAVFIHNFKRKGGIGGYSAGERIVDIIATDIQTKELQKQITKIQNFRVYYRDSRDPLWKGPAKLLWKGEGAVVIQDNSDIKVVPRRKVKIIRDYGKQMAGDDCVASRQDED

Row | Compound | EC50 (read-out: EC50) | EC50
1 | Cc1nc2ccccc2c(-c2ccccc2)c1C(OC(C)(C)C)C(=O)O (configuration not stated) | 1320 nM | 
2 | CSc1ccccc1-c1c(C(OC(C)(C)C)C(=O)O)c(C)nc2ccccc12 (configuration not stated) | 4510 nM | 
3 | Cc1ccc(-c2c(C(OC(C)(C)C)C(=O)O)c(C)nc3ccccc23)cc1 (configuration not stated) | 240 nM | 
4 | Cc1nc2ccccc2c(-c2cncnc2)c1C(OC(C)(C)C)C(=O)O (configuration not stated) |  | Not Active
5 | CC(=O)Nc1ccc(-c2c(C(OC(C)(C)C)C(=O)O)c(C)nc3ccccc23)cc1 (configuration not stated) | 8410 nM | 
6 | Cc1nc2ccccc2c(-c2ccc(-c3ccccc3)cc2)c1C(OC(C)(C)C)C(=O)O (configuration not stated) |  | Not Active
7 | Cc1nc2ccccc2c(-c2cccc(Cl)c2)c1C(OC(C)(C)C)C(=O)O (configuration not stated) | 3790 nM | 
8 | Cc1nc2ccccc2c(-c2cccc(C#N)c2)c1C(OC(C)(C)C)C(=O)O (configuration not stated) |  | Not Active
9 | Cc1ccccc1-c1c(C(OC(C)(C)C)C(=O)O)c(C)nc2ccccc12 (configuration not stated) | 510 nM | 
10 | COc1cccc(-c2c(C(OC(C)(C)C)C(=O)O)c(C)nc3ccccc23)c1 (configuration not stated) | 1380 nM | 
11 | CSc1ccc(-c2c(C(OC(C)(C)C)C(=O)O)c(C)nc3ccccc23)cc1 (configuration not stated) | 490 nM | 
12 | Cc1nc2ccccc2c(-c2cccs2)c1C(OC(C)(C)C)C(=O)O (configuration not stated) |  | Not Active
13 | Cc1nc2ccccc2c(-c2ccc(Cl)cc2)c1C(OC(C)(C)C)C(=O)O (configuration not stated) | 100 nM | 
14 | Cc1cccc(-c2c(C(OC(C)(C)C)C(=O)O)c(C)nc3ccccc23)c1 (configuration not stated) | 950 nM | 
15 | Cc1nc2ccccc2c(-c2ccc3c(c2)CCCO3)c1C(OC(C)(C)C)C(=O)O (configuration not stated) | 27 nM | 
16 | COc1ccc(-c2c(C(OC(C)(C)C)C(=O)O)c(C)nc3ccccc23)cc1 (configuration not stated) | 230 nM | 
17 | Cc1nc2ccccc2c(-c2ccc3c(c2)OCCO3)c1C(OC(C)(C)C)C(=O)O (configuration not stated) | 80 nM | 
18 | Cc1nc2ccccc2c(-c2cccc(F)c2)c1C(OC(C)(C)C)C(=O)O (configuration not stated) | 2110 nM | 
19 | CSc1cccc(-c2c(C(OC(C)(C)C)C(=O)O)c(C)nc3ccccc23)c1 (configuration not stated) | 1000 nM | 
20 | Cc1nc2ccccc2c(-c2ccc(OC(F)(F)F)cc2)c1C(OC(C)(C)C)C(=O)O (configuration not stated) | 350 nM | 
21 | Cc1nc2ccccc2c(-c2ccccc2F)c1C(OC(C)(C)C)C(=O)O (configuration not stated) | 580 nM | 

The next lines start with the values.

Row | EC50 (read-out: EC50) | EC50 | Compound
22 | 2970 nM |  | Cc1nc2ccccc2c(-c2ccc(C#N)cc2)c1C(OC(C)(C)C)C(=O)O (configuration not stated)
23 | 720 nM |  | Cc1nc2ccccc2c(-c2ccc(C(F)(F)F)cc2)c1C(OC(C)(C)C)C(=O)O (configuration not stated)
24 | 70 nM |  | Cc1nc2ccc(Br)cc2c(-c2ccc(Cl)cc2)c1C(OC(C)(C)C)C(=O)O (configuration not stated)
25 | 3700 nM |  | COc1ccc(-c2c(C(OC(C)(C)C)C(=O)O)c(C)nc3ccccc23)cc1OC (configuration not stated)
26 | 2210 nM |  | Cc1nc2ccccc2c(-c2ccoc2)c1C(OC(C)(C)C)C(=O)O (configuration not stated)
27 | 8390 nM |  | COc1ccccc1-c1c(C(OC(C)(C)C)C(=O)O)c(C)nc2ccccc12 (configuration not stated)
28 | 490 nM |  | Cc1nc2ccccc2c(-c2ccc(F)cc2)c1C(OC(C)(C)C)C(=O)O (configuration not stated)
29 | 1390 nM |  | CC(=O)c1ccc(-c2c(C(OC(C)(C)C)C(=O)O)c(C)nc3ccccc23)cc1 (configuration not stated)
30 | 11100 nM |  | Cc1nc2ccccc2c(-c2ccccc2C#N)c1C(OC(C)(C)C)C(=O)O (configuration not stated)
31 | 260 nM |  | Cc1nc2ccccc2c(-c2ccccc2Cl)c1C(OC(C)(C)C)C(=O)O (configuration not stated)
32 |  | Not Active | Cc1nc2ccccc2c(-c2ccc3c(c2)c2ccccc2n3-c2ccccc2)c1C(OC(C)(C)C)C(=O)O (configuration not stated)
